Assay [1] addresses T1, Dihydrofolate reductase (Homo sapiens) (UniProt P00374).
T1 sequence (whole entry): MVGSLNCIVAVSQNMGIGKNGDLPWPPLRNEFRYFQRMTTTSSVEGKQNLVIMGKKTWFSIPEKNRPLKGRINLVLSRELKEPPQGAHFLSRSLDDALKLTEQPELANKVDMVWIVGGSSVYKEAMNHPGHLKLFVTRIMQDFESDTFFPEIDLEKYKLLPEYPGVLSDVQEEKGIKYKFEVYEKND
Put plainly: Inhibition of DHFR (unknown origin) using dihydro folic acid as substrate at 0.5 mM preincubated with compound for 5 mins followed by substrate addition and measured after 30 mins in presence of NADPH by absorbance based assay relative to control. The settings on record: time 35.0 min.

A further assay concerns the target T2, Dihydrofolate reductase (Homo sapiens, UniProt P00374).
T2 sequence (P00374 whole entry): T1 sequence (whole entry)
The assay is described as follows: (§1) Inhibition of DHFR (unknown origin) using dihydro folic acid as substrate preincubated with compound for 5 mins followed by substrate addition and measured after 30 mins in presence of NADPH by absorbance based assay.

Assay [2] concerns the target T1, Dihydrofolate reductase (Homo sapiens). The assay is described as §1. The settings on record: time 35.0 min.

Molecules are shown by their SMILES. Active and inactive are the calls of the source. The calls are words filed in the database; no cut-off is given here.

Broadly, the inhibition is the share of the control response that was lost under treatment. The term IC50 denotes the concentration that gives 50% inhibition. In the case of `CC1(C)OC(=O)C(Cc2cn(-c3ccccc3)nn2)(Cc2cn(Cc3ccc(C#N)cc3)c3ccccc23)C(=O)O1`, the inhibition in assay [1] was 86.2%. The 50% inhibitory concentration (IC50) at Dihydrofolate reductase came to 30.4 µM.
As for `CC1(C)OC(=O)C(=Cc2cn(CCC#N)c3ccccc23)C(=O)O1`, the inhibition in assay [1] stood at 35.3%. Also, the inhibition entry in assay [2] was “inactive”.
On to `CC1(C)OC(=O)C(Cc2cn(-c3ccc(C(F)(F)F)cc3)nn2)(Cc2cn(CCC#N)c3ccccc23)C(=O)O1`, for which the inhibition in assay [1] stood at 90.5%. Further, on Dihydrofolate reductase, the IC50 amounted to 13.9 µM.
With `N#CCCn1cc(C=O)c2ccccc21`, the inhibition in assay [1] came out at 24.8%. Further, the inhibition result in assay [2] is “inactive”.
For `CC1(C)OC(=O)C(Cc2cn(-c3ccc(F)cc3)nn2)(Cc2c[nH]c3ccccc23)C(=O)O1`, the inhibition in assay [1] turned out to be 91.7%. The IC50 on Dihydrofolate reductase came out at 5.1 µM.
For `CC1(C)OC(=O)C(Cc2cn(-c3ccc(C(F)(F)F)cc3)nn2)(Cc2c[nH]c3ccccc23)C(=O)O1`, the inhibition in assay [1] was determined as 91.3%. The IC50 on Dihydrofolate reductase is 10.1 µM.
In the case of `CC1(C)OC(=O)C(Cc2cn(-c3ccc(F)cc3)nn2)(Cc2cn(CCC#N)c3ccccc23)C(=O)O1`, in assay [1], the inhibition turned out to be 92.5%. Moreover, the IC50 at Dihydrofolate reductase was 4.78 µM.
Turning to `C#CCC1(Cc2cn(CCC#N)c3ccccc23)C(=O)OC(C)(C)OC1=O`, the inhibition in assay [1] amounted to 46.2%. Also, in assay [2], the inhibition result is “inactive”.
Take `Cc1ccccc1-n1cc(CC2(Cc3cn(CCC#N)c4ccccc34)C(=O)OC(C)(C)OC2=O)nn1`: the inhibition in assay [1] was determined as 89.4%. Further, on Dihydrofolate reductase, the IC50 was determined as 18.3 µM.
The matching figures for `COc1ccc(-n2cc(CC3(Cc4cn(Cc5ccc(C#N)cc5)c5ccccc45)C(=O)OC(C)(C)OC3=O)nn2)cc1`: 92.3% and 3.48 µM.
`CC1(C)OC(=O)C(Cc2cn(-c3ccc(Br)cc3)nn2)(Cc2cn(Cc3ccc(C#N)cc3)c3ccccc23)C(=O)O1`: the inhibition in assay [1] was determined as 91.5%. In addition, the half-inhibitory concentration (IC50) at Dihydrofolate reductase stood at 9.1 µM.
Turning to `C#CCC1(Cc2cn(Cc3ccc(C#N)cc3)c3ccccc23)C(=O)OC(C)(C)OC1=O`, the inhibition in assay [1] came out at 41.4%. Also, the inhibition entry in assay [2] was “inactive”.
Take `CC1(C)OC(=O)C(Cc2cn(-c3ccc(Br)cc3)nn2)(Cc2c[nH]c3ccccc23)C(=O)O1`: the inhibition in assay [1] stood at 91.6%. Besides, the IC50 on Dihydrofolate reductase worked out at 9.57 µM.
The corresponding values for `COc1ccc(OC(=O)C(Cc2cn(-c3ccc(F)cc3)nn2)Cc2cn(CCC#N)c3ccccc23)cc1` (configuration not stated) are 91.3% and 12.8 µM.
As to `CC1(C)OC(=O)C(Cc2cn(-c3ccc(C(F)(F)F)cc3)nn2)(Cc2cn(Cc3ccc(C#N)cc3)c3ccccc23)C(=O)O1`, the inhibition in assay [1] is 91.8%. On Dihydrofolate reductase, the IC50 worked out at 8.71 µM.
As for `CC1(C)OC(=O)C(Cc2cn(-c3ccc(F)cc3)nn2)(Cc2cn(Cc3ccc(C#N)cc3)c3ccccc23)C(=O)O1`, the inhibition in assay [1] was 91.7%. Also, the IC50 at Dihydrofolate reductase is 6.15 µM.
Take `N#Cc1ccc(Cn2cc(C=O)c3ccccc32)cc1`: the inhibition in assay [1] was determined as 25.2%. Also, the inhibition entry in assay [2] is “inactive”.
Consider `COc1ccc(OC(=O)C(Cc2cn(-c3ccc(Br)cc3)nn2)Cc2cn(Cc3ccc(C#N)cc3)c3ccccc23)cc1` (configuration not stated), for which the inhibition in assay [1] is 86.7%. Besides, the concentration for half-maximal inhibition (IC50) at Dihydrofolate reductase stood at 25.3 µM.
For the compound `CC1(C)OC(=O)C(Cc2cn(-c3ccccc3)nn2)(Cc2c[nH]c3ccccc23)C(=O)O1`, the inhibition in assay [1] was 89.7%. In addition, the IC50 at Dihydrofolate reductase turned out to be 23.8 µM.
As for `COc1ccc(OC(=O)C(Cc2cn(-c3ccc(F)cc3)nn2)Cc2cn(Cc3ccc(C#N)cc3)c3ccccc23)cc1` (configuration not stated), the inhibition in assay [1] came out at 90.9%. At Dihydrofolate reductase, the IC50 stood at 16.1 µM.
The corresponding values for `COc1ccc(-n2cc(CC3(Cc4c[nH]c5ccccc45)C(=O)OC(C)(C)OC3=O)nn2)cc1` are 90.9% and 4.36 µM.
With `CC1(C)OC(=O)C(Cc2cn(-c3ccc(Br)cc3)nn2)(Cc2cn(CCC#N)c3ccccc23)C(=O)O1`, in assay [1], the inhibition is 91.6%. The IC50 on Dihydrofolate reductase worked out at 11.3 µM.
Consider `C#CCC1(Cc2c[nH]c3ccccc23)C(=O)OC(C)(C)OC1=O`, for which the inhibition in assay [1] worked out at 40.2%. Moreover, the inhibition entry in assay [2] was “inactive”.
As for `CC1(C)OC(=O)C(Cc2c[nH]c3ccccc23)C(=O)O1`, the inhibition in assay [1] was 36.2%. Also, in assay [2], the inhibition entry is “inactive”.
The corresponding values for `CC1(C)OC(=O)C(Cc2cn(Cc3ccc(C#N)cc3)c3ccccc23)C(=O)O1` are 25.5% and “inactive”.
Take `CC1(C)OC(=O)C(Cc2cn(-c3ccccc3)nn2)(Cc2cn(CCC#N)c3ccccc23)C(=O)O1`: the inhibition in assay [1] was determined as 87.3%. Moreover, the IC50 at Dihydrofolate reductase is 27.6 µM.
With `COc1ccc(-n2cc(CC3(Cc4cn(CCC#N)c5ccccc45)C(=O)OC(C)(C)OC3=O)nn2)cc1`, in assay [1], the inhibition is 91.8%. Besides, on Dihydrofolate reductase, the 50% inhibitory concentration (IC50) stood at 5.83 µM.
Consider `Cc1ccccc1-n1cc(CC2(Cc3cn(Cc4ccc(C#N)cc4)c4ccccc34)C(=O)OC(C)(C)OC2=O)nn1`, for which, in assay [1], the inhibition was found to be 90.6%. For the same compound, the IC50 on Dihydrofolate reductase amounted to 14.5 µM.
`Cc1ccccc1-n1cc(CC2(Cc3c[nH]c4ccccc34)C(=O)OC(C)(C)OC2=O)nn1`: the inhibition in assay [1] came out at 90.7%. The IC50 on Dihydrofolate reductase was found to be 19.6 µM.
For `CC1(C)OC(=O)C(Cc2cn(CCC#N)c3ccccc23)C(=O)O1`, the inhibition in assay [1] was 38.9%. For the same compound, the inhibition result in assay [2] was “inactive”.
The corresponding values for `CC1(C)OC(=O)C(=Cc2cn(Cc3ccc(C#N)cc3)c3ccccc23)C(=O)O1` are 30.2% and “inactive”.

The values are drawn from ChEMBL document CHEMBL6074720, “Dihydrofolate reductase inhibitory potential of 1H-indole-based-meldrum linked 1H-1,2,3-triazoles as new anticancer derivatives: In-vitro and in-silico studies” (Eur J Med Chem, 2025).
